Assay [1] has as its system type I interferon genes. Nature of the assay: IFNα and IFNβ gene expression in popliteal draining lymph nodes (Taqman gene expression assay, RT-PCR). Type of assay: in vivo, C57BL/6J mice. The following applies: 50 μl of 6 mM nanoparticles s.c. foot pads; popliteal DLN; 3 h or 24 h. Here is the method:
The data in FIG. 2 corresponds to an experiment wherein C57BL/6J mice (n=2) were injected with 50 μl of 6 mM R-DOTAP or S-DOTAP nanoparticles subcutaneously in the foot pads. Mice injected with PBS, and LPS (50 μg/mouse) (24 h time point) were used as negative and positive controls respectively. 3 h or 24 hr after injection, popliteal draining lymph nodes from each mouse were pooled and lysed in RLT buffer and processed for relative gene expression analysis using Taqman gene expression assay and RT-PCR.
RNA isolation, Nano string Analysis, and gene expression assay: For gene expression analysis, draining popliteal lymph nodes (n=4) were enzymatically digested using cell dissociation cocktail for 60 min at 37° C., and single cell suspensions were used to sort CD11c+ ells using Sony SY3200 cell sorter. Sort purified CD11c+ cells (25K cells) were lysed in Qiagen's RLT cell lysis buffer (Qiagen, USA) and total RNA was isolated using Qiagen total RNA isolation kit (Qiagen, USA). […] Binding of mRNA was detected with Nanso String nCounter analysis system, and raw count data was normalized and statistically analyzed using SAS program by UK genomics core laboratory. For confirmation studies using RT-PCR, the lymph nodes were directly lysed in RLT cell lysis buffer, and the total isolation RNA was reverse transcribed to cDNA using QuantiTect reverses transcription kit (Qiagen, USA). […]
In general terms: Real-time PCR tracks product formation cycle by cycle.

The next assay relates to CD69. Description: CD69 expression on CD3+ T cells in draining lymph nodes (flow cytometry). Type of assay: in vivo, C57BL/6J mice or IFNAR−/− mice. The following applies: 24 hr. Here is the method:
(§1) The data in FIG. 3 corresponds to an experiment wherein A) C57BL/6J mice (n=3) were injected with 50 μl of 6 mM R-DOTAP or 280 mM Sucrose subcutaneously in the foot pads. At indicated times popliteal draining lymph nodes from each mouse were isolated and single suspensions of lymph nodes were enumerated using hemocytometer to obtain total cell numbers. B) C57BL/6J (n=3) or IFNAR−/− (n=3) mice were injected with 50 μl of 6 mM R-DOTAP or 280 mM sucrose in the foot pad and draining popliteal lymph nodes were harvested from each mouse and enzymatically digested lymph nodes were assessed for the total cell number at 24 hr (B) using hemocytometer and expression of CD69 on CD3+ T cells (B) was assessed using flowcytometry. A-B) data represent total number of cells in each draining lymph node. C) Data represent percent CD69+ cells each group 24 hr after vaccination (n=3 mice per group).
IFN reporter cell assay and Cell phenotypic analysis: For detecting IFN, the supernatants from type I IFN producing cells were added to B16-Blue™ IFN-α/β Cells in a 96 well plate. After 24 hr incubation, the supernatants were assayed for SEAP activity using QUANTI-Blue™ reagent (InvivoGen, USA) according to manufacturer's instructions. Briefly, 50 μl of cell supernatants containing SEAP was mixed with 150 μl QUANTI-Blue™ reagent and incubated for 3-4 hr at 37° C. and absorbance was measured at 650 nm using a spectrometer. The concentrations of type I IFN in test samples were quantified using a standard curve generated from recombinant type I IFNβ treated B16-Blue™ IFN-α/β Cells in the same assay. To measure CD69 expression, single cell suspensions of lymph nodes were stained with fluorochrome conjugated CD3, and CD69 and percent CD69+CD3+ T cells in each draining lymph node were measured using flowcytometry.
To further understand the effect and ability of cationic lipids to activate the type I interferons, C57BL/6J mice or IFNAR−/− mice were injected with 50 μl of 6 mM R-DOTAP nanoparticles or 6 mM S-DOTAP or 280 mM sucrose subcutaneously in the foot pads. […]
Background: In flow cytometry, cells or beads pass a laser one at a time.

Assay [2] has as its system type I interferon genes. Nature of the assay: Inflammatory gene expression in sorted CD11c+ cells of draining lymph nodes (nCounter mouse inflammation kit, nanostring). Type of assay: in vivo, C57BL/6J mice. Here is the method: The data in FIG. 1 corresponds to an experiment wherein C57BL/6J mice (n=4) were injected with 100 μl of 12 mM R-DOTAP liposome nanoparticles subcutaneously behind the neck. Mice injected with PBS, and LPS (50 μg/mouse) (24 h time point) were used as negative and positive controls respectively. 4 h or 24 hr after injection, axillary and brachial draining lymph nodes from each mouse were pooled and processed by collagenase digestion. CD11c positive cells (˜20,000 cells) in these lymph node cell suspensions were sort-purified and lysed in RLT buffer and processed for relative gene expression analysis using nCounter® mouse inflammation kit and nanostring technologies.
RNA isolation, Nano string Analysis, and gene expression assay: For gene expression analysis, draining popliteal lymph nodes (n=4) were enzymatically digested using cell dissociation cocktail for 60 min at 37° C., and single cell suspensions were used to sort CD11c+ ells using Sony SY3200 cell sorter. Sort purified CD11c+ cells (25K cells) were lysed in Qiagen's RLT cell lysis buffer (Qiagen, USA) and total RNA was isolated using Qiagen total RNA isolation kit (Qiagen, USA). Total RNA obtained was sent to University of Kentucky genomics core laboratory (Lexington, KY) where total RNA was mixed with Ncounter™ mouse inflammation panel (Nano String Technologies, Seattle, WA) which can measure over 547 genes involved in immune response. Binding of mRNA was detected with Nanso String nCounter analysis system, and raw count data was normalized and statistically analyzed using SAS program by UK genomics core laboratory. For confirmation studies using RT-PCR, the lymph nodes were directly lysed in RLT cell lysis buffer, and the total isolation RNA was reverse transcribed to cDNA using QuantiTect reverses transcription kit (Qiagen, USA). The cDNA was then amplified using TaqMan gene expression system (Applied biosystems, USA) to detect and quantify mouse IFNα and IFNβ transcripts relative to GAPDH expression using quantitative PCR reaction.
To assess cationic nanoparticle induced gene expression, C57BL/6J mice were injected with 100 μl of 12 mM R-DOTAP nanoparticles subcutaneously behind the neck, and inflammatory gene expression in draining lymph nodes analyzed 4 or 24 hours post vaccination. Mice injected with PBS, and LPS (50 μg/mouse) (24 h time point) were used as negative and positive controls respectively. 4 h or 24 hr after injection, axillary and brachial draining lymph nodes from each mouse were pooled and processed by collagenase digestion. Activated dendritic cells (CD11c^+) cells in the lymph node cell suspensions were sort-purified and lysed in RLT buffer and processed for relative gene expression analysis using nCounter® mouse inflammation kit and nanostring technologies.

A further assay deals with draining lymph nodes. Description: Cell recruitment: size and total cell number of draining lymph nodes. Type of assay: in vivo, C57BL/6J mice or IFNAR−/− mice. The protocol:
as §1
To further understand the effect and ability of cationic lipids to activate the type I interferons, C57BL/6J mice or IFNAR−/− mice were injected with 50 μl of 6 mM R-DOTAP nanoparticles or 6 mM S-DOTAP or 280 mM sucrose subcutaneously in the foot pads. 24 hr after injection, popliteal draining lymph nodes from each mouse were isolated and single cell suspensions of lymph nodes were stained with fluorochrome conjugated CD3 and CD69. […] Type I IFN is known to inhibit lymphocyte egress from lymphoid organs through the up-regulation of CD69 which, in turn, inhibits the sphingosine 1 phosphate receptor required for lymphocyte egress. We therefore postulated that injection of both S-DOTAP and R-DOTAP would result in the upregulation of CD69 in the DLN. […] The data represents % CD69+CD3+ T cells in each draining lymph node.

Where [3] appears, read: wild type mice, 50 μl of 6 mM s.c. foot pads.

Structures are written as SMILES. “Also recorded” adds a separate entry of the source.

For the molecule `CCCCCCCC/C=C\CCCCCCCC(=O)OCC(C[N+](C)(C)C)OC(=O)CCCCCCC/C=C\CCCCCCCC` (stereo not drawn) [S-DOTAP, 1,2-dioleoyl-3-trimethyl ammonium-propane], the “Type I interferon (IFNα, IFNβ) gene expression, RT-PCR” value in the assay with type I interferon genes [1] is “strong inducers; also recorded: up-regulation”. Besides, the “CD69 expression in DLN T cells” value with CD69 (setting [3]) is “up-regulation of CD69 most strongly in T cells”.
On to `CCCCCCCC/C=C\CCCCCCCC(=O)OC[C@@H](C[N+](C)(C)C)OC(=O)CCCCCCC/C=C\CCCCCCCC` [R-DOTAP, (R)-1,2-dioleoyl-3-trimethylammonium propane], for which the “Expression of IFN-1α and IFN-1β, increase relative to LPS positive control” value in the assay on type I interferon genes [2] (100 μl of 12 mM nanoparticles s.c. behind the neck, CD11c+ cells of axillary and brachial DLN, 4 or 24 h, LPS 50 μg/mouse) is given as “greater than 5 fold”. For the same molecule, the “Expression of several inflammatory genes” value in the assay on type I interferon genes [2] (100 μl of 12 mM s.c., both time points (4 h, 24 h)) was “significantly alter”. Further, the “Expression of other genes including Cxc110” value with type I interferon genes [2] (100 μl of 12 mM s.c., compared with LPS) is “significantly increased and more comparable to levels induced by LPS”. Also, the “Type I interferon gene expression (nanostring)” value in the assay with type I interferon genes [2] (FIG. 1, mean of 4 mice) is “up-regulation”. Further, the “Type I interferon (IFNα, IFNβ) gene expression, RT-PCR” value in the assay with type I interferon genes [1] is reported as “strong inducers; also recorded: up-regulation”. Besides, in the assay on draining lymph nodes (50 μl of 6 mM s.c. foot pads, without antigen, wild type mice), the DLN size result is recorded as “visible increase”. The “Increase in total cell number in DLN in IFNαR knock-out mouse versus wild type” value in the assay with draining lymph nodes (IFNαR knock-out mouse, 24 hr) is recorded as “greatly reduced”. In addition, the “Total cell number in DLN” value with draining lymph nodes (wild type mice, over a 7-day period) is on record as “steady increase”. Moreover, the “CD69 expression in DLN T cells” value is “no CD69 upregulation” in the assay on CD69 (IFNαR knock-out mice) and “up-regulation of CD69 most strongly in T cells” in the assay on CD69 (setting [3]).

The record behind these values is US12551460B2, “Methods and compositions comprising cationic lipids for stimulating type 1 interferon genes” (PDS BIOTECHNOLOGY COPORATION, priority 2017, dated 2026).
